Experimental data from US20040120938A1, “Ingestible compositions comprising antibacterial agents” (The University of Bath, priority 1998, published 2004).
Read-outs that look alike come from different tables or passages of the source.

Key:
[1] = biological target: T1, bovine xanthine oxidase (XOR) (Bos taurus, UniProt P80457); test: NO release by XOR with known XOR inhibitors (Test 4); format: biochemical; settings: inhibitor 100 μM in the XOR/nitrite/NADH assay of Test 1
T1 construct: purchased Biozyme, Blaenavon, UK batch 104AX
Procedure: Bovine xanthine oxidase was diluted with PBS as indicated in Table 1 below to give 300 μl of enzyme mixture. The enzyme mixture (300 μl) was mixed with 700 μl of a substrate mixture to give an assay volume of 1 ml. The substrate mixture comprised nitrite which was added to the assay to give a concentration of 1 mM and NADH which was added to give a concentration of 0.3 mM. Where, for example in Tests 2 to 4 below, additional components are added to the sample, the amount of PBS is adjusted accordingly to give an assay volume of 1 ml. The sample was placed in the reaction vessel of the NO determination apparatus under a nitrogen atmosphere and the generation of NO was measured and the results calculated as a steady state rate in mV/s. […] Two different inhibitors were used. Oxypurinol was used at a concentration of 100 μM. Oxypurinol is a molybdenum site-specific inhibitor. Diphenyliodonium (DPI) was used at a concentration of 100 μM. DPI is a FAD site inhibitor.

[2] = test system: nitric oxide (NO) release; test: NO release from full fat milk with nitrite and NADH under hypoxia (Test 5); format: biochemical; settings: inhibitor 100 μM; for inhibition of the increased NO release of milk gone off at 4° C.: milk kept at 4° C. more than 3 days
Procedure: (§1) The production of nitric oxide in the following tests and examples was analysed using an ozone chemiluminescence assay in a continuous flow apparatus (Sievers NOA 280) that allows the real time analysis of NO production. The apparatus was modified to allow a constant stream of nitrogen to flow into the reaction chamber. Chemiluminescence data were collected by a data acquisition system; the mean NO produced in parts per billion (ppb) was calculated from readings taken every second and shown as ppb or mV.
(§2) Progress curves, of molar production of NO against time, were calculated by taking into account the gas flow and the mean level of NO. Molar production of NO was expressed as ppb/sec or mV/sec. Reactions were carried out in a final volume of 1 ml at 37° C. in an atmosphere of <1% oxygen (Stathkelvin combination needle oxygen electrode, Diamond General Corp.).
(§3) To the “substrates” bijou, 200 μl of 100 mM stock sodium nitrite was added together with 200 μl of the 5 mM reduced NADH to give an assay concentration of 20 mM nitrite and 1 mM reduced NADH.
(§4) To the “milk” bijou were added 600 μl of milk sample to give an assay volume of 1 ml.
(f) At t=5 minutes, the contents of the “milk” bijou were injected into the reaction cell using a 1 ml syringe and the release of NO was monitored for a further 20 minutes. The set up was such that the reaction cell was a sealed system having an inlet gas flow of 200 ml/min and a sample extraction flow to the NOA-280 of 200 ml/min. The steady-state generation of NO (which corresponded to a plateau region on the trace of the NO production) was noted to give the mV/s release of NO from the 1 ml assay volume.
Full fat milk was assayed with 20 mM nitrite and 1 mM NADH as described above in Test 1. […] 600 μl of milk was used in each test giving a protein content in each assay of 20.4 mg.
The milk was taken and divided into two halves. One was kept at 4° C., and the other at −20° C. Samples of the milk were taken over several days and the generation of NO was investigated using the method described above.

[3] = test system: nitric oxide (NO) release; test: NO release from formula feeds with nitrite and NADH (Test 7); format: biochemical; settings: inhibitor 100 μM
Procedure: as §1, §2, §3, §4
(f) At t=5 minutes, the contents of the “milk” bijou were injected into the reaction cell using a 1 ml syringe and the release of NO was monitored for a further 20 minutes. […]

Lactobacillus casei 6375 = test: Bacterial growth rate by optical density, 96 well plate (Tests 8(f), 8(g)); format: cell-based
Procedure: (§5) Bacteria were seeded into nutrient broth (NB) and grown over night at 37° C. The culture was then counted and normalised to give a final cell concentration of 1.8×10^7 cells well^−1 into the wells of a 96 well plate in fresh nutrient broth. The optical density of each well was monitored every 15 minutes as a measure of the growth rate of each bacterial species. Growth curves were generated for each species and the maximal rate of growth (logarithmic phase) was measured. Cells were treated to a range of experimental conditions in which the growth rate of cells was related to a control of untreated cells. The results were expressed as a percentage of the growth rate of the control cells.
(§6) (i) At a fixed concentration of hypoxanthine (100 μM) a range of purified XO protein concentrations were added at time 0 minutes. The optical density was followed and the growth rate calculated.
(§7) (ii) The growth rate was also measured in relation to the concentration of hypoxanthine, using 30 μg of XO with cells seeded as described above.
(§8) (iv) The effect of XO hypoxanthine addition was measured on the growth rate of a range of bacterial species with 30 […] XO at varying hypoxanthine concentrations using cells seeded as described above.

[4] = test system: Staphylococcus aureus 6751; test: as above; format: cell-based
Procedure: as §5, §6, §7, §8

Bacillus sp = settings: read-out: Half maximal concentration H2O2, bolus at beginning of logarithmic growth
Procedure: as §5, §8

Micrococcus sp = settings: read-out: Half maximal concentration H2O2, bolus at beginning of logarithmic growth
Procedure: as §5, §8

[5] = test system: bacteria in pasteurised semi skimmed milk; settings: 100 μM in pasteurised semi skimmed milk, 4-8° C., 8 days
Procedure: Pasteurised semi skimmed milk 1 ml was aliquoted into 7 sterile plastic bijou bottles comprising control and treated hypoxanthine (Hxan) groups. […] The samples were stored refrigerated at 4-8° C. until required on a specific day when a control and treated sample was incubated at 37° C. for 30 minutes. A 100 μl aliquot was taken from each sample and spread onto nutrient agar which was then incubated over night at 37° C. The total number of colonies formed regardless of type was counted and expressed for each treatment as the colony forming units per ml of the original test sample (CFU ml^−1).

Staphylococcus aureus = test: Incubation of Staphylococcus aureus with SIN-1, growth; format: cell-based; settings: in dependence on the amount added
Procedure: Cells cultured as described above were diluted to suitable working concentrations (10^4-10^5 Cells Ml^−1) in sterile phosphate buffered saline (PBS). […] Aliquots were taken from the cell cultures and plated on to nutrient agar and incubated in a warm room at 37° C. overnight. Viable cells formed colonies on the agar and were counted. The number of colonies formed was related to an untreated control and a graph of the results is shown in FIG. 1, which illustrates the effect of ONOO^− on cell viability.

superoxide = test: Measurable NO in the XO/hypoxanthine system with superoxide dismutase; format: biochemical; settings: added to the Xo/hypoxanthine system; oxygen 0 to 2%

T1 sequence (P80457 whole entry): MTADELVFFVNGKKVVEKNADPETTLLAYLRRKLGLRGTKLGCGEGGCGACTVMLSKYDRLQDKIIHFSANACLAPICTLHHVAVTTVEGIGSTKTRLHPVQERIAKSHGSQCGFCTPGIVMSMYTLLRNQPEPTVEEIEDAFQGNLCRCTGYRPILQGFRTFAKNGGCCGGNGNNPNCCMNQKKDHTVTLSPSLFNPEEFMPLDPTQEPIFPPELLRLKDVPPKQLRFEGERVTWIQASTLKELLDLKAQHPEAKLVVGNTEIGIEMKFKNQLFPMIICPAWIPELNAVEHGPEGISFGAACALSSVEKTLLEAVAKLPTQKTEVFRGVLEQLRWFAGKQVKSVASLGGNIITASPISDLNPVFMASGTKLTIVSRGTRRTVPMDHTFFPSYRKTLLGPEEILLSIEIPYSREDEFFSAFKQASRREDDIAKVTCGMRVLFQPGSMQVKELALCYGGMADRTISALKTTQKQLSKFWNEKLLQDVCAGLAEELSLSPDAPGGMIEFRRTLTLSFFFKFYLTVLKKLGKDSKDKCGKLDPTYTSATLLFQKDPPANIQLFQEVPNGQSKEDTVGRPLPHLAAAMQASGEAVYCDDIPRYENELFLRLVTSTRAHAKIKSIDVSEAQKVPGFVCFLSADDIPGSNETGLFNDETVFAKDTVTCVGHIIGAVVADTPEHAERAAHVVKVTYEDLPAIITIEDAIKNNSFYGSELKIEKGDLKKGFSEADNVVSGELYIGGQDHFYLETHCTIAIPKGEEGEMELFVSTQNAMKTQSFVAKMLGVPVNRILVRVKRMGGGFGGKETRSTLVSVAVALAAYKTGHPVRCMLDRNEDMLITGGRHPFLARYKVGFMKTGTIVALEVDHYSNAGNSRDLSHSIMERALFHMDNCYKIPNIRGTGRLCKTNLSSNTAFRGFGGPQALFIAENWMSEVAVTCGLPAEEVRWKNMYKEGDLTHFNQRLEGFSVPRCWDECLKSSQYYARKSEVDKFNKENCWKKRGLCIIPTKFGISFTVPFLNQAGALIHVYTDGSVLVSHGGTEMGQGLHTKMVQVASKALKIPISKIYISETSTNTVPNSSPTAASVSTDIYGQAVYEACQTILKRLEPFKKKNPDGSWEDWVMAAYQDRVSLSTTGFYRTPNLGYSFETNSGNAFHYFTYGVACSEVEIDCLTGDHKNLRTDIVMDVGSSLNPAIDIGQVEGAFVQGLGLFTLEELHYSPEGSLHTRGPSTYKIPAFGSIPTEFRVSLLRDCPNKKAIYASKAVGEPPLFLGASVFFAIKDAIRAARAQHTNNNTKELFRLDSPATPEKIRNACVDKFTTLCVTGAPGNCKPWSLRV

Which NO release [1] does the source give for `c1ccc([I+]c2ccccc2)cc1` [DPI, Diphenyliodonium] here?
Its NO release is 0.00 mV/s.

And the “NO generation of fresh full fat milk with inhibitor” value [2]?
The value was “no detectable NO generation”.

And the “inhibition of the increased NO release of milk gone off at 4° C.” value [2]?
Its value is “not inhibited”.

And the “inhibition of NO release of 7 days old Cow and Gate formula” value [3]?
Its value is “not inhibited”.

For `OO` [H2O2, hydrogen peroxide], which IC50 (Lactobacillus casei 6375; read-out: Half maximal concentration H2O2, Lactobacillus casei, bolus at beginning of logarithmic growth) is on record?
The IC50 was 305 µM.

And the growth inhibition ([4]; S. aureus, 50% growth reduction not observed at the concentration ranges used)?
Its growth inhibition is “very limited”.

And the IC50 (Bacillus sp)?
Its IC50 is 77.6 µM.

What about the IC50 (Micrococcus sp) of the same molecule?
The IC50 was 19.5 µM.

What does the source list for `O=c1[nH]cnc2nc[nH]c12` [Hypoxanthine, hypoxanthine]?
total number of colonies formed (CFU ml^−1) [5]: reduce the total number of colonies formed; IC50 (Lactobacillus casei 6375; Lacticaseibacillus casei, 6375, Lactobacillus, at 30 μg XO, read-out: half maximal hypoxanthine dose): 104 µM; growth rate ([4]; Staphylococcus, in the presence of 30 μg XO): reduced the growth rate

Which NO release [1] does the source give for `O=c1[nH]c(=O)c2c[nH]nc2[nH]1` [Oxypurinol] here?
The NO release was 0.00 mV/s.

What about the “NO generation of fresh full fat milk with inhibitor” value [2] of the same molecule?
Its value is “no detectable NO generation”.

And the “inhibition of the increased NO release of milk gone off at 4° C.” value [2]?
Its value is “not inhibited”.

And the “inhibition of NO release of 7 days old Cow and Gate formula” value [3]?
Its value is “not inhibited”.

What about the “effect on XO/hypoxanthine growth inhibition” value (Lactobacillus casei 6375; 30 μg XO and 200 μM hypoxanthine, range of concentrations) of the same molecule?
Its value is “reduce the effect of XO/hypoxanthine growth inhibition in a dose dependent manner”.

And the “growth rate of Lactobacillus, added alone” value (Lactobacillus casei 6375; highest concentration, alone)?
The value was “no effect”.

How did the “growth of Staphylococcus aureus” value (Staphylococcus aureus) turn out when `N=c1c[n+](N2CCOCC2)[n-]o1` [SIN-1, 3-morpholinosydnonimine] was run?
Its value is “reduced growth”.

For superoxide dismutase, which “amount of measurable NO” value (superoxide) is on record?
Its value is “increase the amount of measurable NO”.
